How the values were obtained:
Assay type in all cases: cell-based, mouse
HC11 cells [1] = test: Milk production markers in differentiated HC11 (milk domes, Csn2 RT-qPCR, CSN2 WB, PLIN2 ICC); conditions: HC11, doxorubicin 50 nM, differentiated
Description: (§1) The HC11 cell line was obtained from American Type Culture Collection (ATCC) and routinely checked for mycoplasma (Mycoplasma PCR kit, ABM, G238). Undifferentiated HC11 cells were cultured in growing medium (RPMI-1640; Thermo Fisher Scientific, 72400047), supplemented with 10% FBS, 5 μg/ml insulin (Millipore-Sigma, 16634), 10 ng/ml epidermal growth factor (EGF; Preprotech, AF-100-15) and 1× AntiAnti (Thermo Fisher Scientific, 15240112) at 37° C. with 5% CO2. Cells were grown to confluency and maintained in growing medium for 2 days, until they became competent. Competent HC11 cells were primed for differentiation by culturing them in priming medium [RPMI-1640 supplemented with 5 μg/ml insulin, 1 μM dexamethasone (Millipore-Sigma, D4902-1 G) and 1× Anti-Anti] for 24 h at 37° C. with 5% CO2. To induce differentiation, primed HC11 cells were cultured in DIP Medium [RPMI-1640, supplemented with 10% FBS, 5 μg/ml insulin, 1 μM dexamethasone, 1× anti-anti and 3 μg/ml Prolactin (NHPP, oPRL-21)] at 37° C. with 5% CO2.
(§2) […] Drugs were maintained through the differentiation process and added with every change of media.
Whole cell lysates were prepared using 1×NP40 lysis buffer (Thermo Fisher Scientific, FNN0021) supplemented with Pierce Protease and Phosphatase inhibitors (Thermo Fisher Scientific, A32959). Cells were washed with ice-cold PBS (GIBCO, 14190136) and lysed direct in buffer and kept at 4° C. rocking at 70 rpm for 30 min. Lysed cells were collected and centrifuged at 12,000 rpm at 4° C. for 15 min. Protein concentration was quantified using Qubit 4 fluorometer (Thermo Fisher, Q33238). Samples were resolved by SDS page and transferred to polyvinylidene difluoride (PVDF, Millipore-Sigma, IPVH00010) for 60 min at 250 mA. Immunoblots were blocked for 1 h at room temperature using either 5% non-fat milk or 5% BSA TBST. Primary antibodies [anti-GAPDH (SCBT, sc-365062), anti-Actin (SCBT, sc-47778), anti-Cyclin B1 (SCBT, sc-245), anti-Cyclin E1 (Millipore-Sigma, SAB4503516) and anti-CSN2 (ABclonal, A12749)] were incubated overnight at 4° C. in a rocker. HRP-conjugated secondary antibodies ([…]) were used for 1 h at room temperature. Immunoblots were developed using Clarity ECL (Bio-Rad), detected using a Bio-Rad ChemiDoc MP Image, and quantified using ImageJ.
(§3) HC11 cells were fixed using ice-cold MeOH for 10 min. After washing with 1×PBS, cells were incubated for 1 h at room temperature with primary antibodies [anti-γH2AX (SCBT, sc-517348), anti-pATR (Genetex, GTX128145), anti-PLIN2 (generously provided by Jim McManaman)] in a humid incubation chamber. After incubation, cells were washed three times using 1×PBS and incubated for 1 h at room temperature in darkness using corresponding Alexa Fluor AffiniPure secondary antibodies (Jackson ImmunoResearch) and Phalloidin-iFluor 488 Reagent (Abcam, ab176753) when indicated. Cells were washed three times using 1×PBS and incubated with Hoechst 33342 (AnaSpec, AS-83218) for 10 min. Cells were mounted using fluoromount-G (Southern Biotech, 0100-01) and visualized using Zeiss Axio Imager Microscope. Integrated density of PLIN2, nuclear γH2AX and nuclear pATR was quantify using ImageJ.
For RNA isolation from FACS purified populations, mammary gland cell suspensions were blocked using Mouse BD Fc Block™ (BD Biosciences) for 10 min. Cells were subsequently resuspended on 1×PBS at a density of 10^7 cells/ml and stained with the following antibodies for 30 min on ice: anti-CD24 PE (Stem Cell Technologies, 60099PE.1), anti-CD29 PE-Cy7 (BioLegend, 102222), anti-CD45-APC (BioLegend,105826), Ter119-APC (BD Biosciences, 561033), CD31-ACP (BD Biosciences, 551262). Propidium iodide at a final concentration of 0.5 μg/ml was used for the discrimination of dead cells. Stromal, basal and luminal mammary populations were sorted using a BD FACS Aria II Cell Sorter. […]

HC11 cells [2] = test: FACS DNA content analysis of HC11 cells during lactogenic differentiation; conditions: HC11, doxorubicin 50 nM
Description: as §1, §2
For DNA content analysis of the mammary gland CK8^+ epithelial population, mammary gland cells suspension was obtained as described above. Cells were fixed in ice-cold 70% EtOH at a final concentration of 10^6 cells/ml. During fixation, cells were vigorously vortexed for 1 min to avoid the formation of cell aggregates. Cells were washed twice with washing buffer [1×PBS containing 5% FBS and 0.5% tween 20 (Fisher Chemical, BP337500)] and centrifuged at 2,000 rpm for 5 min at 4° C. Cell pellet was incubated for 1 h at room temperature with anti-CK8 (Developmental Studies Hybridoma Lab, TROMA-1), anti-GFP (Thermo Fisher, A01704) or corresponding rat (Thermo-Fisher, 10700) or rabbit (Thermo-Fisher, 10500C) IgG isotype controls. Cells were washed twice and incubated for 1 h at room temperature in darkness with FITC anti-Rat (Thermo Fisher, A24544) or FITC anti-Rabbit (Thermo Fisher, A16030) and APC anti-Rat (Jackson ImmunoResearch, 712-136-153). Cells were washed twice and resuspended in propidium iodide solution [1×PBS containing 25 μg/ml of propidium iodide (Thermo Fisher, P3566) and 100 μg/ml of RNAse (Thermo Fisher, 12091021)]. For DNA content analysis on HC11, cells were washed with 1×DPBS (GIBCO, 14190-250) and harvested using 0.05% Trypsin-EDTA (GIBCO, 25300-062). Cell suspension was washed with 1×DPBS and centrifuged at 1,000 rpm for 5 min at 4° C. Cell pellet was fixed in ice-cold 70% EtOH and then vortexed vigorously to avoid cell aggregates. After fixation, cells were washed with washing buffer [1×PBS (GIBCO, 14190136) supplemented with 5% FBS] and centrifuged at 2,000 rpm for 5 min at 4° C. The pellet was resuspended in propidium iodide solution. Cell suspensions were filtered through a 70 μm cell strainer (Falcon, 08-771-2) and analyzed using a BD LSRII cytometer or a BD FACS Aria II Cell Sorter. Populations were analyzed using FlowJo.

γH2AX = γH2AX immunofluorescence on HC11 cells; conditions: HC11, doxorubicin 50 nM, 24 h post-treatment
Description: as §2, §3

COc1cccc2c1C(=O)c1c(O)c3c(c(O)c1C2=O)C[C@@](O)(C(=O)CO)C[C@@H]3O[C@H]1C[C@H](N)[C@H](O)[C@H](C)O1 [doxorubicin]
CSN2, WB (HC11 cells [1]): increase | polyploidization (FACS DNA content) (HC11 cells [2]; DIP3): increase in polyploidization | proportion of tetraploid cells (FACS DNA content) (HC11 cells [2]; after 24 h): increases | γH2AX (γH2AX): increase
